{"source": "patent US6447997B1", "about": "“Gene coding for GADD153 as a clinical diagnostic and prognostic in cancer therapy” (Research Development Foundation, priority 1997, dated 2002)", "format_in_all_cases": "cell-based, human", "key": {"[1]": {"tested_on": "UMSCC10b-Pt/S15", "assay": "Sensitivity to cDDP in vitro, clonogenic assay", "conditions": "subline UMSCC10b-Pt/S15", "procedure": "(§1) UMSCC10b cells were selected for cDDP resistance by chronic exposure to cDDP which was supplied by (Bristol-Meyers-Squibb, Princeton, N.Y.). The first three selections were performed at a concentration of 0.5 μM which allowed approximately 10^7 cells to grow to confluence in a 150 cm^2 flask within one week. For every following set of 3 selections, the cDDP concentration was increased by approximately 20% (15,16). The sensitivity of the UMSCC10b cell line and its cDDP-resistant variants to cDDP was determined by clonogenic assay using a 1 h cDDP exposure. A single-cell suspension was plated into 60 mm tissue culture dishes (Corning) at 300 cells per dish in fresh medium. After incubation for 24 h at 37° C., cells had attached to the plates and cDDP was added to the cells and incubated for 1 h following which the cells were washed twice with phosphate-buffered saline and 5 ml of fresh medium was added. Cultures were incubated for an additional 13-15 days following which there were fixed with methanol, stained with Giemsa, and clusters of >50 cells were scored as colonies. cDDP-selected cells were cultured in drug-free media for 2 weeks before cDDP sensitivity was determined by clonogenic assay."}, "[2]": {"tested_on": "UMSCC10b-Pt/S6", "assay": "Sensitivity to cDDP in vitro, clonogenic assay", "conditions": "subline UMSCC10b-Pt/S6", "procedure": "as §1"}, "[3]": {"tested_on": "GADD153 mRNA", "assay": "GADD153 mRNA level in UMSCC10b cells and cDDP-resistant sublines after cDDP exposure, RT-PCR", "procedure": "In order to permit use of needle aspiration biopsies of tumors, the highly sensitive technique of RT-PCR rather than the less sensitive technique of Northern blot analysis was utilized throughout for quantitation of mRNA. The magnitude of the change in GADD153 mRNA level as a function of cisplatin (cDDP) concentration was determined by treating UMSCC10b cells with 0.1, 1, 10, or 100 μM cDDP for 1 h and quantifying GADD153 mRNA in untreated and treated cells harvested at 24 h by RT-PCR. The procedure is detailed in the attached examples. The results in FIG. 1 indicate that a concentration-dependent magnitude of increase in GADD153 mRNA levels reached 6-fold at the highest cDDP concentration tested. FIG. 2 depicts the time course of increase in GADD153 following a 1 h exposure to 100 μM cDDP. An increase in GADD153 mRNA level was evident at 12 h after cDDP exposure, and the peak occurred at 24 h followed by a decline to baseline levels by 96 h. β-ACTIN was used as an internal standard to normalize the data.\nWithout being held to a particular mechanism of action, the present inventors believe that the magnitude of increase in GADD153 mRNA level reflects the extent of tumor cell damage in a tumor treated with a chemotherapeutic agent. Supportive evidence was obtained using sublines of UMSCC10b selected for cDDP resistance. The parental cells, the 3-fold resistant subline UMSCC10b-Pt/S6 (15,16), and the 6-fold resistant subline UMSCC10b-Pt/S15 (15,16) were exposed to 2, 7, 12 μM cDDP for 1 h. These levels of exposure correspond to the IC10, IC50, and IC70 for the parental cell line, respectively.\nTo assure that the resistant variants had not lost their capacity to activate the GADD153 gene, and to validate the change in GADD153 level as a molecular marker of tumor injury in drug resistant as well as sensitive cells, the effect of cDDP applied at equitoxic concentrations was compared between the parental cells and the two resistant sublines.\nTo determine the time course of the change in GADD153 mRNA level, UMSCC10b cells were incubated with 100 μM cDDP for 1 h and total RNA was extracted at 0, 1, 2, 6, 12, 24, 48, 72 and 96 h after treatment. To analyze the effect of cDDP concentration on the expression of GADD153 , UMSCC10b cells were incubated for 1 h with various cDDP concentrations (0, 0.1, 1, 10, 100 and 1000 μM) and RNA was extracted 24 h after cDDP exposure.\nUMSCC10b cells were harvested in 10 ml of denaturing solution (4 M guanidinium thiocyanate, 25 mM sodium citrate, pH 7, 0.5% sarcosyl, and 0.1 M 2-mercaptoethanol. After adding 1 ml of 2 M sodium acetate (pH 4), 10 ml of water-saturated phenol (pH 4) and 2 ml of chloroform:isoamyl alcohol (49:1) to the denatured cells, they were mixed thoroughly, placed on ice for 15 min, and centrifuged at 2800 rpm for 20 min at 4° C. The aqueous phase was collected and mixed with 10 ml of isopropyl alcohol, placed for 1 h at −20° C. and centrifuged. The pellet was dissolved in 1.8 ml of denaturing solution and 2 ml of isopropyl alcohol, placed for 1 h at −20° C. and centrifuged. The pellet was washed with 1 ml of 80% ethanol and then centrifuged at 5000 rpm for 10 min at room temperature. The RNA pellet was dried for 20 min in a tissue culture hood and resuspended in 100 μl of DEPC-treated water. Of this solution, 50 μl was used immediately for cDNA synthesis.\nGADD153 message levels were quantified using a modification of the technique reported by Horikoshi et al (20). Total RNA acquired from the biopsies or xenografts was reverse-transcribed using random hexamers to produce cDNA (20,21,22). Serial dilutions of the CDNA were made and 5 μl of each dilution was placed in a sterile 0.5 ml Eppendorf tube. […]"}, "[4]": {"conditions": "UMSCC10b cells, 1 h exposure to 100 μM cDDP"}}, "data": [{"compound": "[NH2][Pt]([NH2])([Cl])[Cl]", "note": "[cDDP, cisplatin]", "values": [{"measurement": "cDDP resistance relative to parental cells", "setting": "[1]", "value": 6, "unit": "fold"}, {"measurement": "cDDP resistance relative to parental cells", "setting": "[2]", "value": 3, "unit": "fold"}, {"measurement": "magnitude of the increase in GADD153 mRNA level", "setting": "[3]; 3-fold resistant variant UMSCC10b-Pt/S6, 2, 7, 12 μM cDDP for 1 h (equimolar)", "value": "lower than in the parental cells"}, {"measurement": "expression of GADD153", "setting": "[3]; 6-fold resistant variant UMSCC10b-Pt/S15, 2, 7, 12 μM cDDP for 1 h (equimolar)", "value": "did not increase above its baseline level"}, {"measurement": "time at which increase in GADD153 mRNA level was evident", "setting": "[3]; [4]", "value": 12, "unit": "h"}, {"measurement": "time of decline of GADD153 mRNA to baseline levels", "setting": "[3]; [4]", "value": "≤ 96", "unit": "h"}, {"measurement": "time of peak GADD153 mRNA level", "setting": "[3]; [4]", "value": 24, "unit": "h"}, {"measurement": "magnitude of increase in GADD153 mRNA levels", "setting": "[3]; UMSCC10b cells, 1 h exposure, highest cDDP concentration tested (100 μM), harvested at 24 h", "value": 6, "unit": "fold"}, {"measurement": "change in expression of GADD153 at equitoxic concentrations", "setting": "[3]; parental cells and two resistant sublines, IC10, IC50, IC70", "value": "no difference between the cell lines"}]}]}
